Data set [1] deals with Cryptococcus neoformans (Cr. neoformans) cells (strain MTU13001). The data set is described as follows: In vitro antifungal activity, broth micro-dilution, turbidity at 600 nm. It counts as cell-based. The settings on record: YNBPB medium, 35° C., 24 hours, OD600; for IC50: Cryptococcus neoformans, read-out: Inhibition against in vitro cell growth, Cr. neoformans (MTU13001) IC50. As for the experimental part: In vitro antifungal activity of the bicyclic compounds was determined using the Cryptococcus neoformans (Cr. neoformans) cells (strain MTU13001) according to the broth micro-dilution procedure (National Committee for Clinical Laboratory Standard (1992). Document M27-P). 10^4 cells in […] of YNBPB medium (YNB (Difco), 1% (w/v) dextrose (Wako), 0.25% K2HPO4 (Wako)) containing various concentrations of compounds were dispensed in 96-well plates and incubated at 35° C. for 24 hours. The turbidity of the cell suspension was measured using a Microplate leader (WL320, Bio-Tek Instrument) at 600 nm. Antifungal activity of each compound was indicated as 50% inhibition concentration (IC50) values that was determined by calculation the minimum concentration of the compound required for the 50% reduction of the turbidity (OD600) of cells compared to untreated control cells.

A short description of data set [2]: Acute toxicity (LD50) by intravenous administration in mice. The settings on record: mouse, in vivo. The source says: The acute toxicity (LD50) of the representative bicycle compound (Example 42) of the present invention was examined by intravenous administration in mice.

Converted amounts (≈) assume the structure as drawn.

For `Cc1c(COc2cccnc2)oc2cccc(OCCCNCc3cccnc3)c12` [Example 31, {3-[3-Methyl-2-(pyridin-3-yloxymethyl)-benzofuran-4-yloxy]-propyl}-pyridin-3-ylmethyl-amine], the IC50 in data set [1] was 19 µg/mL (≈ 47.1 µM). As to `CCOCc1cc2cc(OCc3oc4cccc(OCCCNCc5cccnc5)c4c3C)ccc2o1` [Example 42, [3-[2-(2-Ethoxymethyl-benzofuran-5-yloxymethyl)-3-methyl-benzofuran-4-yloxy]-propyl]-pyridin-3-ylmethyl-amine], in data set [1], the half-inhibitory concentration (IC50) came to 2.5 µg/mL (≈ 4.99 µM). Besides, the LD50 in data set [2] was > 50 mg/kg. Take `Cc1c(COc2ccc(F)cc2F)oc2cccc(OCCCNCc3cccnc3)c12` [Example 12, {3-[2-(2,4-Difluorophenoxymethyl)-3-methyl-benzofuran-4-yloxy]-propyl}-pyridin-3-ylmethyl-amine]: the IC50 in data set [1] worked out at 4.4 µg/mL (≈ 10 µM). On to `Cc1c(COc2ccc3oc(C(C)(C)O)cc3c2)oc2cccc(OCCCNCc3cccnc3)c12` [Example 44-2, 2-[5-(3-methyl-4-{3-[(pyridin-3-ylmethyl)-amino]-propoxy}-benzofuran-2-ylmethoxy)-benzofuran-2-yl]-propan-2-ol], for which, in data set [1], the IC50 turned out to be 6.1 µg/mL (≈ 12.2 µM). On the same count and under the same terms, next, `Cc1c(COc2ccc(F)c(F)c2F)oc2cccc(OCCCNCc3cccnc3)c12` [Example 21, {3-[2-(2,3,4-Trifluorophenoxymethyl)-3-methyl-benzofuran-4-yloxy]-propyl}-pyridin-3-ylmethyl-amine]: 5.8 µg/mL (≈ 12.7 µM); `Cc1c(C(=O)Nc2ccc(N3CCOCC3)cc2)oc2cccc(OCCCNCc3cccnc3)c12` [Example 69, 3-Methyl-4-{3-[(pyridin-3-ylmethyl)-amino]-propoxy}-benzofuran-2-carboxylic Acid (4-morpholin-4-yl-phenyl)-amide]: 57 µg/mL (≈ 114 µM). As to `Cc1c(C2=NC(C(=O)N3CCN(C)CC3)C(CC3CCCCC3)O2)oc2cccc(OCCCNCc3cccnc3)c12` (racemic) [Example 88, dl-[5-Cyclohexylmethyl-2-(3-methyl-4-{3-[(pyridin-3-ylmethyl)-amino]-propoxy}-benzofuran-2-yl)-trans-4,5-dihydro-oxazol-4-yl]-(4-methyl-piperazin-1-yl)-methanone], the “Inhibition against in vitro cell growth, Cr. neoformans (MTU13001) IC50” value in data set [1] turned out to be 5.3 µg/mL. With `CCOCc1oc2cccc(OCCCNCc3cccnc3)c2c1C` [Example 52, [3-(2-Ethoxymethyl-3-methyl-benzofuran-4-yloxy)-propyl]-pyridin-3-ylmethyl-amine], the concentration for half-maximal inhibition (IC50) in data set [1] stood at 2.6 µg/mL (≈ 7.34 µM).

For `Cc1c(CSCCc2ccccc2)oc2cccc(OCCCNC(C)C)c12` [Example 55, Isopropyl-[3-(3-methyl-2-phenethylsulfanylmethyl-benzofuran-4-yloxy)-propyl]-amine], the IC50 in data set [1] is 1.8 µg/mL (≈ 4.53 µM).

Consider `CCOC(=O)c1oc2cccc(OCCCNCc3ccc(N(C)C)cc3)c2c1C` [Example 99, 4-(3-(4-Dimethylamino-benzylamino)-propoxy)-3-methyl-benzofuran-2-carboxylic Acid Ethyl Ester], for which, in data set [1], the half-maximal inhibitory concentration (IC50) turned out to be 1.9 µg/mL (≈ 4.63 µM). With `CCOC(=O)c1ccc(NC(=O)c2oc3cccc(OCCCNC(C)(C)C)c3c2C)cc1` [Example 64, 4-[[4-(3-tert-Butylamino-propoxy)-3-methyl-benzofuran-2-carbonyl]-amino]-benzoic Acid Ethyl Ester], in data set [1], the half-maximal inhibitory concentration (IC50) stood at 2.1 µg/mL (≈ 4.64 µM). Still for that read-out and setting: to `CCOC(=O)c1oc2cccc(OCCCNC3CCN(Cc4ccccc4)CC3)c2c1C` [Example 100, 4-(3-(1-Benzyl-piperidin-4-ylamino)-propoxy)-3-methyl-benzofuran-2-carboxylic Acid Ethyl Ester] belongs 2.1 µg/mL (≈ 4.66 µM). The same measure, in the same setting: next, `Cc1c(C(=O)NCCc2ccccc2)oc2cccc(OCCCNC3CCN(Cc4ccccc4)CC3)c12` [Example 112, 4-[3-(1-Benzyl-piperidin-4-ylamino)-propoxy]-3-methyl-benzofuran-2-carboxylic Acid Phenethyl-amide]: 3.1 µg/mL (≈ 5.9 µM); `Cc1c(COc2ccc(C#N)cc2)oc2cccc(OCCCNCc3cccnc3)c12` [Example 32, 4-(3-Methyl-4-{3-[(pyridin-3-ylmethyl)-amino]-propoxy}-benzofuran-2-ylmethoxy)-benzonitrile]: 69 µg/mL (≈ 161 µM).

The values are drawn from US6376491B1, “Bicyclic compounds” (Basilea Pharmaceutica AG, priority 1998, dated 2002).
